According to US20230272062A1, “Treatment Of Lung Disease Based Upon Stratification Of Polygenic Score Relating To Response To A Therapeutic Agent” (Regeneron Pharmaceuticals, Inc., priority 2021, published 2023):
“Also recorded” adds a separate entry of the source.

What was measured:
[1] = Change of FEV1 in dupilumab-treated subjects stratified by FEV1-PS; type: in vivo, human; settings: European subjects
Source text: The covariates were AGE, SEX, STUDYID (study identifier), ICS_FL (taking inhaled corticosteroids at baseline; yes/no), EOSBL_300 FL (eosinophils >300 at baseline), ASMANUM_LOG (exacerbation history for the previous year), HGTBL (height baseline), FEV1BL, and PC1-4 (principal components 1-4). The FEV1-PS was divided into quartiles and ranked from lowest to highest, the number at the bottom of each bar is the number of subjects in each group, and the number inside each bar is the change in FEV1 values at week 12.
The covariates were AGE, SEX, STUDYID, ICS_FL, EOSBL_300 FL, ASMANUM_LOG, HGTBL, FEV1BL, and PC1-4.

[2] = Annualized exacerbation rate in dupilumab-treated subjects stratified by FEV1-PS; type: in vivo, human; settings: European subjects, by FEV1-PS quartile (FIG. 3)
Source text: The covariates were AGE, SEX, STUDYID, ICS_FL, EOSBL_300 FL, ASMANUM_LOG, HGTBL, FEV1BL, and PC1-4. The FEV1-PS was divided into quartiles and ranked from lowest to highest, the number at the bottom of each bar is the number of subjects in each group, and the number inside each bar is the change in annualized exacerbation rate.

dupilumab
longitudinal increase of change of FEV1 ([1]; by FEV1-PS (FIG. 2)): significantly associated with better FEV1 improvement; also recorded: greatest FEV1 improvement
change of FEV1 at week 12 ([1]; by FEV1-PS quartile, compared to placebo-treated patients (FIG. 1)): significantly associated with better FEV1 improvement; also recorded: greatest improvement in FEV1
annualized exacerbation rates [2]: not associated with differences in annualized exacerbation rates
